Source: PMC3437627 (Bioorganic & medicinal chemistry letters, 2008)

Columns and labels:
[1] = molecular target: T1, α7* nAChRs (Rattus norvegicus, UniProt Q05941); test: [3H]methyllycaconitine; assay type: binding; conditions: 100 nM
[2] = molecular target: T1, α7* nAChRs; conditions: rat brain membranes; cited from earlier work
[3] = in vivo; cited from earlier work
[4] = molecular target: α4β2* nAChRs (Rattus norvegicus, UniProt P09483+P12390); conditions: rat brain membranes; cited from earlier work
[5] = tested on: nicotine self-administration; conditions: rats; cited from earlier work

T1 sequence (Q05941 23-502): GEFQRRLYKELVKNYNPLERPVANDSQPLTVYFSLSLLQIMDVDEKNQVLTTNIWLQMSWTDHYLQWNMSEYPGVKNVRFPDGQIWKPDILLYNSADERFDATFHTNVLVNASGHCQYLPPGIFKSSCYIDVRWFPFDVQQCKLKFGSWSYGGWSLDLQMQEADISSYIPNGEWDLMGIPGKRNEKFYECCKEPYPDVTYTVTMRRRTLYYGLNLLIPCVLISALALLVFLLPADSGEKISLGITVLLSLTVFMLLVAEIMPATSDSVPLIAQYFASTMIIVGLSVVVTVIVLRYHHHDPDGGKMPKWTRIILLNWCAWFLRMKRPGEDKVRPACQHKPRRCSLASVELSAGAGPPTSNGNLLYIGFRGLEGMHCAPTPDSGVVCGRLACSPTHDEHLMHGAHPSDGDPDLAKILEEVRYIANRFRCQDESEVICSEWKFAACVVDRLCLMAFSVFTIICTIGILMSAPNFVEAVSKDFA
α4β2* nAChRs, sequence (P09483 31-630): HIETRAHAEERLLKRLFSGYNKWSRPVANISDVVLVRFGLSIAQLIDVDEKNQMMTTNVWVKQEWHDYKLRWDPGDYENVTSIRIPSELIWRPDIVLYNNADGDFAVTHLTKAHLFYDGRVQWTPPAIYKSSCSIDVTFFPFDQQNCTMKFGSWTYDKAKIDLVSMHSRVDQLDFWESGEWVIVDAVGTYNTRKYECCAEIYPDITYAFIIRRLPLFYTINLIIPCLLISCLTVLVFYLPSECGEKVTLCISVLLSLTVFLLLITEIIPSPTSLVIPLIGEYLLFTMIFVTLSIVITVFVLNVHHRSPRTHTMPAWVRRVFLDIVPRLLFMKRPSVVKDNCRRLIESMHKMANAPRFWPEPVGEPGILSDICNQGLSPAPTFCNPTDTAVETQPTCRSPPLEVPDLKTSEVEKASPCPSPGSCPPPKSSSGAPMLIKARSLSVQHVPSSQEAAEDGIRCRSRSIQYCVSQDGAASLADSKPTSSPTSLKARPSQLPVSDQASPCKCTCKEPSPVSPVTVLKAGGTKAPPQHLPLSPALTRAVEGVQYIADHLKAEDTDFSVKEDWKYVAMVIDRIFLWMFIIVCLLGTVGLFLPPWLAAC
α4β2* nAChRs, sequence (P12390 25-500): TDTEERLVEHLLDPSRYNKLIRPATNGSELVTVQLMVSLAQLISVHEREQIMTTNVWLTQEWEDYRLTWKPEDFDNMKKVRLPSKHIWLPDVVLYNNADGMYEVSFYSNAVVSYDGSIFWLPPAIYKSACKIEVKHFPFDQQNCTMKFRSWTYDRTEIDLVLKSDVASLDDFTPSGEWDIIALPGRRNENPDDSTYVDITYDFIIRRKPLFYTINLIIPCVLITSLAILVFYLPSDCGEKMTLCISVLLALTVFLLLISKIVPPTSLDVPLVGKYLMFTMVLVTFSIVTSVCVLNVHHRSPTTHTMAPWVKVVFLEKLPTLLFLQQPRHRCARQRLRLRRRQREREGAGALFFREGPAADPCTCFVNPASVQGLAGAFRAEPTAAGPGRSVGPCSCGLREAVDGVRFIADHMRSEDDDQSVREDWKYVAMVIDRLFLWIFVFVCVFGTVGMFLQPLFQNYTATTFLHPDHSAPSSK

Row | SMILES | inhibition in the MLA assay [1] | affinity for α7* nAChR binding site [2] | brain bioavailability [3] | affinity for α4β2* nAChR binding site [4] | effect on nicotine self-administration [5]
1 | C(#Cc1cc(C#CCCC[n+]2cccc(-c3ccccc3)c2)c(C#CCCC[n+]2cccc(-c3ccccc3)c2)cc1C#CCCC[n+]1cccc(-c2ccccc2)c1)CCC[n+]1cccc(-c2ccccc2)c1.[Br-].[Br-].[Br-].[Br-] [Compound 8i] | significant inhibition |  |  |  | 
2 | C(#Cc1cc(C#CCCC[n+]2cccc(Cc3ccccc3)c2)c(C#CCCC[n+]2cccc(Cc3ccccc3)c2)cc1C#CCCC[n+]1cccc(Cc2ccccc2)c1)CCC[n+]1cccc(Cc2ccccc2)c1.[Br-].[Br-].[Br-].[Br-] [Compound 8f] | significant inhibition |  |  |  | 
3 | Cc1ccc[n+](CCCCCCCCCCCC[n+]2cccc(C)c2)c1.[Br-].[Br-] [Compound 2, N,N’-dodecane-1,12-diyl-bis-3-picolinium dibromide] |  | no affinity | brain bio-available | no affinity | decrease nicotine self-administration
